Measurements taken from patent publication US9409952B2, “Peptide-compound cyclization method” (Chugai Seiyaku Kabushiki Kaisha, priority 2011, dated 2016).
Like-named read-outs stand apart in the source and are kept apart here. Starred links: 1 amine or outer side, 2 acyl side, 3 side chain; linkers in the order of their positions; H or OH if unused. Positions of bridges follow the written chain, without caps; N, C: chain ends. Non-standard residues stand in square brackets, D forms with d. Residues, ends and D or L forms follow the SMILES beside them. *: point of attachment. Phe(3-(CH2)4CO) = O=C([C@H](Cc1cccc(CCCCC(=O)[*:3])c1)N[*:1])[*:2]; NMePhe(3-Cl) = CN[C@@H](Cc1cccc(Cl)c1)C(=O)O; Arg(Me2s) = CN=C(NC)NCCC[C@H](N)C(=O)O; NMeF = CN[C@@H](Cc1ccccc1)C(=O)O; NMeGABA = CN(CCCC(=O)[*:2])[*:1]; NMeI = CC[C@H](C)[C@H](NC)C(=O)O; NMeβAla = CN(CCC(=O)[*:2])[*:1]; Aoc(2) = CCCCCC[C@H](N)C(=O)O; NMeL = CN[C@@H](CC(C)C)C(=O)O; NMeV = CN[C@H](C(=O)O)C(C)C; NMeS = CN[C@@H](CO)C(=O)O; NMeA = CN[C@@H](C)C(=O)O; Piperidide = C1CCN(*)CC1; dNMeA = CN[C@H](C)C(=O)O; β3hA = C[C@H](N)CC(=O)O; Sar = CNCC(=O)O; tBu = CC(C)(C)*

Tests used:
[1] = Metabolic stability in human hepatic microsome; type: in vitro ADME; details: microsomes
[2] = PAMPA (parallel artificial membrane permeability assay); type: in vitro ADME; details: PAMPA
How it was run: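 Artificial membrane was 10% (w/v) egg lecithin plus 0.5% (w/v) cholesterol in dodecane on a PVDF filter. A 10 mM DMSO stock was added at 0.5% (v/v) to donor buffer (50 mM MOPSO, pH 6.5, 5.0% glycocholic acid). After 18 h at 37 °C, LC/MS or LC/UV gave donor and acceptor levels for Pe.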

[3] = pH 7.4, human hepatic microsome, NADPH(+), read-out: CL NADPH(+)
[4] = membrane permeation rate (Pe), 50 mM MOPSO buffer pH 6.5 with 5.0% glycocholic acid, 37° C., 18 hours, read-out: iPAMPA Pe

Structure (SMILES)	microsomal CLint at 1 uM [1, 3]	Papp at 18 hours, 50 µM [2, 4]	microsomal CLint at 1 uM ([1]; human, pH 7.4, CL NADPH(+))	Papp at 18 hours, 50 µM ([2]; pH 6.5)
CC[C@H](C)[C@@H]1NC(=O)[C@H](CC(C)C)N(C)C(=O)CN(C)C(=O)[C@H]([C@@H](C)O)NC(=O)[C@H](C)N(C)C(=O)C[C@@H](C(=O)N(C)[C@@H](C)C(=O)N[C@@H](CC(C)C)C(=O)N[C@H](C(=O)N(C)[C@@H](C)C(=O)N[C@@H](C)C(=O)N2CCCCC2)C(C)C)NC(=O)[C@H](CC(C)C)N(C)C(=O)[C@H](Cc2ccccc2)N(C)C(=O)[C@H](CC(C)C)N(C)C1=O [DP-659] ([NMeA]T[Sar][NMeL]I[NMeL][NMeF][NMeL]D[NMeA]LV[NMeA]A-Piperidide; lactam N-9)	13 µL/min/mg	22 ×10⁻⁶ cm/s		
CC[C@H](C)[C@@H]1NC(=O)[C@H](Cc2ccccc2)N(C)C(=O)[C@H]([C@@H](C)O)NC(=O)[C@H](C(C)C)N(C)C(=O)[C@H](CC(C)C)NC(=O)[C@H](CC(C)C)N(C)C(=O)CCN(C)C(=O)C[C@@H](C(=O)N2CCCCC2)NC(=O)[C@H](C)NC(=O)[C@H](C)N(C)C(=O)[C@H](Cc2ccccc2)NC1=O [DP-238] ([NMeβAla][NMeL]L[NMeV]T[NMeF]IF[NMeA]AD-Piperidide; lactam N-11)	129 µL/min/mg	19 ×10⁻⁶ cm/s		
CC[C@H](C)[C@@H]1NC(=O)[C@H](Cc2ccccc2)N(C)C(=O)[C@H](Cc2ccccc2)NC(=O)[C@H](CC(C)C)N(C)C(=O)[C@H](C(C)C)NC(=O)[C@H](CC(C)C)NC(=O)[C@H](C)N(C)C(=O)CNC(=O)CCCCc2cccc(c2)C[C@@H](C(=O)N2CCCCC2)NC(=O)[C@H]([C@@H](C)O)NC(=O)[C@H](CC(C)C)NC(=O)[C@H](C)N(C)C1=O [DP-893] (G[NMeA]LV[NMeL]F[NMeF]I[NMeA]LT[Phe(3-(CH2)4CO)]-Piperidide; lactam N-12)	86 µL/min/mg	5.3 ×10⁻⁶ cm/s		
CC(C)C[C@H]1C(=O)N[C@@H]([C@@H](C)O)C(=O)N(C)[C@@H](C)C(=O)N(C)[C@@H](Cc2ccccc2)C(=O)N(C)CC(=O)N[C@@H](C)C(=O)N(C)[C@@H](Cc2ccccc2)C(=O)N(C)[C@@H](CC(C)C)C(=O)N[C@H](C(=O)N2CCCCC2)CC(=O)N(C)[C@H](C)C(=O)N(C)[C@@H](C)C(=O)N1C [DP-419] ([dNMeA][NMeA][NMeL]T[NMeA][NMeF][Sar]A[NMeF][NMeL]D-Piperidide; lactam N-11)	17 µL/min/mg	6.7 ×10⁻⁶ cm/s		
CC[C@H](C)[C@H]1C(=O)N[C@@H](COC(C)(C)C)C(=O)N[C@@H](C)CC(=O)N(C)[C@@H](C)C(=O)N(C)[C@@H](Cc2ccccc2)C(=O)N(C)CC(=O)N(C)[C@@H](CC(C)C)C(=O)N[C@@H]([C@@H](C)O)C(=O)N(C)[C@@H](C)C(=O)N(C)[C@@H](CC(C)C)C(=O)N1C [DP-779] (cyclo([NMeA][NMeF][Sar][NMeL]T[NMeA][NMeL][NMeI]S(tBu)[β3hA]))			78 µL/min/mg	37 ×10⁻⁶ cm/s
CC(C)C[C@@H]1NC(=O)C[C@@H](C(=O)N2CCCCC2)NC(=O)[C@H](COC(C)(C)C)NC(=O)[C@H](CC(C)C)N(C)C(=O)CN(C)C(=O)[C@H]([C@@H](C)O)NC(=O)[C@H](CC(C)C)N(C)C(=O)[C@H](Cc2ccccc2)N(C)C1=O [DP-692] (L[NMeF][NMeL]T[Sar][NMeL]S(tBu)D-Piperidide; lactam N-8)	212 µL/min/mg	29 ×10⁻⁶ cm/s		
CC(C)C[C@H]1C(=O)N[C@@H](COC(C)(C)C)C(=O)N[C@H](C(=O)N2CCCCC2)CC(=O)N(C)CC(=O)N(C)[C@@H](Cc2ccccc2)C(=O)N(C)[C@@H](C)C(=O)N(C)[C@@H](CC(C)C)C(=O)N[C@@H]([C@@H](C)O)C(=O)N(C)[C@@H](C)C(=O)N1C [DP-163] ([Sar][NMeF][NMeA][NMeL]T[NMeA][NMeL]S(tBu)D-Piperidide; lactam N-9)	68 µL/min/mg	23 ×10⁻⁶ cm/s		
CC[C@H](C)[C@H]1C(=O)N(C)[C@@H](CC(C)C)C(=O)N[C@H](C(=O)N2CCCCC2)CC(=O)N(C)CC(=O)N[C@@H](CC(C)C)C(=O)N[C@@H]([C@@H](C)O)C(=O)N(C)CC(=O)N(C)[C@@H](Cc2ccccc2)C(=O)N[C@@H](C)C(=O)N(C)[C@@H](Cc2ccccc2)C(=O)N(C)[C@@H](CC(C)C)C(=O)N1C [DP-246] ([Sar]LT[Sar][NMeF]A[NMeF][NMeL][NMeI][NMeL]D-Piperidide; lactam N-11)	42 µL/min/mg	41 ×10⁻⁶ cm/s		
CC(C)C[C@@H]1NC(=O)[C@H](Cc2ccccc2)N(C)C(=O)[C@H](CC(C)C)N(C)C(=O)[C@@H](C)N(C)C(=O)C[C@@H](C(=O)N2CCCCC2)NC(=O)[C@H](CC(C)C)N(C)C(=O)[C@H](Cc2ccccc2)N(C)C(=O)[C@H]([C@@H](C)O)NC(=O)[C@H](Cc2ccccc2)N(C)C1=O [DP-441] ([dNMeA][NMeL][NMeF]L[NMeF]T[NMeF][NMeL]D-Piperidide; lactam N-9)	123 µL/min/mg	37 ×10⁻⁶ cm/s		
CC(C)C[C@@H]1NC(=O)[C@H](CC(C)C)N(C)C(=O)[C@H](C)N(C)C(=O)[C@H](Cc2ccccc2)NC(=O)[C@H](C(C)C)N(C)C(=O)CNC(=O)[C@H]([C@@H](C)O)NC(=O)[C@H](C)N(C)C(=O)[C@H](CC(C)C)N(C)C(=O)[C@H](C)N(C)C(=O)C[C@@H](C(=O)N(C)[C@@H](Cc2ccccc2)C(=O)N[C@@H](C)C(=O)N2CCCCC2)NC1=O [DP-181] ([NMeA][NMeL][NMeA]TG[NMeV]F[NMeA][NMeL]LD[NMeF]A-Piperidide; lactam N-11)	13 µL/min/mg	18 ×10⁻⁶ cm/s		
CC(C)C[C@H]1C(=O)N[C@@H]([C@@H](C)O)C(=O)N(C)[C@@H](Cc2ccccc2)C(=O)N(C)[C@@H](CC(C)C)C(=O)NCC(=O)N(C)[C@@H](C(C)C)C(=O)N[C@@H](Cc2ccccc2)C(=O)N[C@H](C(=O)N(C)[C@@H](Cc2ccccc2)C(=O)N[C@@H](C)C(=O)N2CCCCC2)CC(=O)N(C)CC(=O)N[C@@H](C(C)C)C(=O)N1C [DP-304] ([Sar]V[NMeL]T[NMeF][NMeL]G[NMeV]FD[NMeF]A-Piperidide; lactam N-10)			212 µL/min/mg	35 ×10⁻⁶ cm/s
CC(C)C[C@@H]1NC(=O)[C@H]([C@@H](C)O)NC(=O)[C@H](CC(C)C)N(C)C(=O)[C@H](Cc2ccccc2)N(C)C(=O)[C@H](CC(C)C)N(C)C(=O)C[C@@H](C(=O)N2CCCCC2)NC(=O)[C@H](CC(C)C)N(C)C1=O [DP-722] ([NMeL][NMeF][NMeL]TL[NMeL]D-Piperidide; lactam N-7)	311 µL/min/mg	45 ×10⁻⁶ cm/s		
CC[C@H](C)[C@H](NC(=O)[C@@H](NC(=O)[C@H](Cc1ccccc1)NC(=O)[C@@H]1CC(=O)N[C@H](C(C)C)C(=O)N(C)[C@@H](C)C(=O)N(C)[C@@H](CC(C)C)C(=O)N[C@@H]([C@@H](C)O)C(=O)N(C)CC(=O)N(C)[C@@H](Cc2ccccc2)C(=O)N(C)[C@@H](CC(C)C)C(=O)N(C)[C@@H](Cc2cccc(Cl)c2)C(=O)N(C)[C@@H](CC(C)C)C(=O)N[C@@H](C)C(=O)N1)C(C)C)C(=O)N1CCCCC1 [DP-949] ([dV][NMeA][NMeL]T[Sar][NMeF][NMeL][NMePhe(3-Cl)][NMeL]ADFVI-Piperidide; lactam N-11)	37 µL/min/mg	0.11 ×10⁻⁶ cm/s		
CC(C)C[C@H]1C(=O)NCC(=O)N[C@H](C(=O)N(C)[C@@H](Cc2ccccc2)C(=O)N(C)[C@@H](Cc2ccccc2)C(=O)N[C@@H](C)C(=O)N2CCCCC2)CC(=O)N[C@@H](C)C(=O)N[C@@H]([C@@H](C)O)C(=O)N(C)[C@@H](C)C(=O)N(C)[C@@H](Cc2ccccc2)C(=O)N[C@@H](C(C)C)C(=O)N(C)[C@@H](Cc2ccccc2)C(=O)N1C [DP-396] (AT[NMeA][NMeF]V[NMeF][NMeL]GD[NMeF][NMeF]A-Piperidide; lactam N-9)			141 µL/min/mg	55 ×10⁻⁶ cm/s
CC(C)C[C@H]1C(=O)N[C@H](C(=O)N2CCCCC2)CC(=O)N(C)CCCC(=O)N(C)[C@@H](Cc2ccccc2)C(=O)N[C@@H]([C@@H](C)O)C(=O)N(C)CC(=O)N[C@@H](COC(C)(C)C)C(=O)N1C [DP-535] ([NMeGABA][NMeF]T[Sar]S(tBu)[NMeL]D-Piperidide; lactam N-7)	129 µL/min/mg	21 ×10⁻⁶ cm/s		
CCCCCC[C@@H]1NC(=O)[C@H](Cc2ccccc2)N(C)C(=O)[C@H](C)N(C)C(=O)C[C@H](C)NC(=O)[C@H](C(C)C)N(C)C(=O)[C@H](Cc2ccccc2)N(C)C(=O)[C@H](COC(C)(C)C)NC(=O)[C@H](C)N(C)C(=O)CN(C)C(=O)[C@H]([C@@H](C)O)NC(=O)[C@H](CC(C)C)N(C)C1=O [DP-775] (cyclo([Aoc(2)][NMeL]T[Sar][NMeA]S(tBu)[NMeF][NMeV][β3hA][NMeA][NMeF]))			119 µL/min/mg	37 ×10⁻⁶ cm/s
CC(C)C[C@@H]1NC(=O)[C@H](CO)N(C)C(=O)C[C@H](C)NC(=O)[C@H](CC(C)C)N(C)C(=O)[C@H](CC(C)C)N(C)C(=O)[C@@H](C)NC(=O)[C@H](C(C)C)NC(=O)[C@H](CC(C)C)N(C)C(=O)[C@H](C(C)C)NC(=O)[C@H](CC(C)C)N(C)C(=O)CN(C)C1=O [DP-652] (cyclo(L[Sar][NMeL]V[NMeL]V[dA][NMeL][NMeL][β3hA][NMeS]))	51 µL/min/mg	30 ×10⁻⁶ cm/s		
C/N=C(\NC)NCCC[C@@H]1NC(=O)[C@@H]2CCCN2C(=O)[C@H](CC(C)C)NC(=O)[C@H](CC(C)C)N(C)C(=O)[C@H](Cc2ccccc2)NC(=O)CN(C)C(=O)[C@H](CC(C)C)N(C)C(=O)[C@H](Cc2ccccc2)NC(=O)CN(C)C(=O)C[C@@H](C(=O)N(C)[C@@H](Cc2ccccc2)C(=O)N[C@@H](C)C(=O)N2CCCCC2)NC(=O)[C@H](CC(C)C)NC1=O [DP-597] ([Sar]F[NMeL][Sar]F[NMeL]LP[Arg(Me2s)]LD[NMeF]A-Piperidide; lactam N-11)			12 µL/min/mg	1.7 ×10⁻⁶ cm/s
